Data taken from PMC7216583 (Parasites & Vectors, 2020).
pEC50, pIC50, pKi: −log10 of the molar value. Read-outs that look alike come from different tables or passages of the source.

Assays:
AMPK = details: read-out: EC50, AMPK activation; vendor brief description; ref S-inhibitor catalog; cited from earlier work
fatty acid synthesis = tested on: fatty acid synthesis; parameters: method as in S-inhibitor catalog; details: vendor brief description; ref S-inhibitor catalog; cited from earlier work
[1] = tested on: Toxoplasma gondii RH-2F tachyzoites; assay: microbe, parasite or virus in culture; details: 72 h
in vitro = details: human, Host viability (%) mean
human c-Met = target: human c-Met; parameters: method as in S-inhibitor catalog; details: vendor brief description; ref S-inhibitor catalog; cited from earlier work
mouse c-Met = target: mouse c-Met; parameters: method as in S-inhibitor catalog; details: vendor brief description; ref S-inhibitor catalog; cited from earlier work
wild-type CRAF = tested on: wild-type CRAF; parameters: method as in S-inhibitor catalog; details: vendor brief description; ref S-inhibitor catalog; cited from earlier work
BRAFV600E = tested on: BRAFV600E; parameters: method as in S-inhibitor catalog; details: vendor brief description; ref S-inhibitor catalog; cited from earlier work
mutant CETP(C13S) = tested on: mutant CETP(C13S); parameters: method as in S-inhibitor catalog; details: vendor brief description; ref S-inhibitor catalog; cited from earlier work
Chk1 = tested on: Chk1; parameters: method as in S-inhibitor catalog; details: vendor brief description; ref S-inhibitor catalog; cited from earlier work
GSK-3β = details: read-out: IC50, GSK-3β; vendor brief description; ref S-inhibitor catalog; cited from earlier work
GSK-3ɑ = details: read-out: IC50, GSK-3ɑ; vendor brief description; ref S-inhibitor catalog; cited from earlier work
[2] = target: glycogen phosphorylase (GP); parameters: method as in S-inhibitor catalog; details: vendor brief description; ref S-inhibitor catalog; cited from earlier work
[3] = tested on: Pol I-driven transcription of rRNA; parameters: method as in S-inhibitor catalog; details: in HCT-116 cells; vendor brief description; ref S-inhibitor catalog; cited from earlier work
PDGFRα = tested on: PDGFRα; parameters: method as in S-inhibitor catalog; details: in PDGFRα over-expressed CHO cells; vendor brief description; ref S-inhibitor catalog; cited from earlier work
ErbB2 = tested on: ErbB2; parameters: method as in S-inhibitor catalog; details: vendor brief description; ref S-inhibitor catalog; cited from earlier work
ErbB1 = tested on: ErbB1; parameters: method as in S-inhibitor catalog; details: vendor brief description; ref S-inhibitor catalog; cited from earlier work
ErbB4 = tested on: ErbB4; parameters: method as in S-inhibitor catalog; details: vendor brief description; ref S-inhibitor catalog; cited from earlier work
ALK = details: read-out: IC50, ALK; vendor brief description; ref S-inhibitor catalog; cited from earlier work
IGF-1R = tested on: IGF-1R; parameters: method as in S-inhibitor catalog; details: vendor brief description; ref S-inhibitor catalog; cited from earlier work
[4] = target: opioid receptor-like1 (ORL1) receptor; parameters: method as in S-inhibitor catalog; details: vendor brief description; ref S-inhibitor catalog; cited from earlier work
cancer cell lines = tested on: cancer cell lines; parameters: method as in S-inhibitor catalog; details: vendor brief description; ref S-inhibitor catalog; cited from earlier work
γ-secretase [5] = target: γ-secretase; parameters: method as in S-inhibitor catalog; details: vendor brief description; ref S-inhibitor catalog; read-out: IC50, membrane-based γ-secretase; cited from earlier work
γ-secretase [6] = target: γ-secretase; parameters: method as in S-inhibitor catalog; details: vendor brief description; ref S-inhibitor catalog; read-out: IC50, cell-based γ-secretase; cited from earlier work
[7] = target: TGF-β receptor type II (TβRII); parameters: method as in S-inhibitor catalog; details: vendor brief description; ref S-inhibitor catalog; cited from earlier work
cyclin A/CDK2 = tested on: cyclin A/CDK2; parameters: method as in S-inhibitor catalog; details: vendor brief description; ref S-inhibitor catalog; cited from earlier work
PI3K/mTOR = tested on: PI3K/mTOR; parameters: method as in S-inhibitor catalog; details: vendor brief description; ref S-inhibitor catalog; read-out: IC50, dual PI3K/mTOR inhibitor; cited from earlier work
Aurora A = tested on: Aurora A; parameters: method as in S-inhibitor catalog; details: vendor brief description; ref S-inhibitor catalog; cited from earlier work
Aurora B = tested on: Aurora B; parameters: method as in S-inhibitor catalog; details: vendor brief description; ref S-inhibitor catalog; cited from earlier work
[8] = tested on: Akt phosphorylation on S473; parameters: method as in S-inhibitor catalog; details: vendor brief description; ref S-inhibitor catalog; cited from earlier work
[9] = tested on: Akt phosphorylation on T308; parameters: method as in S-inhibitor catalog; details: vendor brief description; ref S-inhibitor catalog; cited from earlier work
p38α = details: read-out: IC50, p38α; vendor brief description; ref S-inhibitor catalog; cited from earlier work
Cdc7 = tested on: Cdc7; parameters: method as in S-inhibitor catalog; details: vendor brief description; ref S-inhibitor catalog; cited from earlier work
CDK9 = tested on: CDK9; parameters: method as in S-inhibitor catalog; details: vendor brief description; ref S-inhibitor catalog; cited from earlier work
PI3Kβ = tested on: PI3Kβ; parameters: method as in S-inhibitor catalog; details: vendor brief description; ref S-inhibitor catalog; cited from earlier work
PI3Kα = tested on: PI3Kα; parameters: method as in S-inhibitor catalog; details: vendor brief description; ref S-inhibitor catalog; cited from earlier work
mTOR = tested on: mTOR; parameters: method as in S-inhibitor catalog; details: vendor brief description; ref S-inhibitor catalog; cited from earlier work
Flt3 = tested on: Flt3; parameters: method as in S-inhibitor catalog; details: vendor brief description; ref S-inhibitor catalog; cited from earlier work
Ret = tested on: Ret; parameters: method as in S-inhibitor catalog; details: vendor brief description; ref S-inhibitor catalog; cited from earlier work
JAK2 = tested on: JAK2; parameters: method as in S-inhibitor catalog; details: vendor brief description; ref S-inhibitor catalog; cited from earlier work
[10] = target: farnesoid X receptor (FXR); parameters: method as in S-inhibitor catalog; details: vendor brief description; ref S-inhibitor catalog; read-out: EC50, FXR agonist; cited from earlier work
APPL (γ-secretase) = target: APPL (γ-secretase); parameters: method as in S-inhibitor catalog; details: vendor brief description; ref S-inhibitor catalog; cited from earlier work
Notch (γ-secretase) = target: Notch (γ-secretase); parameters: method as in S-inhibitor catalog; details: vendor brief description; ref S-inhibitor catalog; cited from earlier work
[11] = tested on: Toxoplasma gondii RH-2F tachyzoites; details: preliminary screen of compound library; mean
Mps1 = tested on: Mps1; parameters: method as in S-inhibitor catalog; details: vendor brief description; ref S-inhibitor catalog; cited from earlier work
[12] = read-out: Parasite inhibition (%) mean, preliminary screen of compound library, mean
[13] = read-out: Parasite inhibition (%) mean

N#Cc1c(O)c2c(-c3ccc(-c4ccccc4O)cc3)csc2[nH]c1=O [A-769662]
pIC50 (fatty acid synthesis): 5.49
inhibition of growth at 5 µM [1, 12]: -13.9%

COc1ccc2c(Oc3ccc(NC(=O)c4c(C)n(CC(C)(C)O)n(-c5ccccc5)c4=O)nc3)ccnc2c1 [AMG458]
viability at 72 h (in vitro): 75.9%
pKi (human c-Met): 8.92
pKi (mouse c-Met): 8.70
inhibition of growth at 5 µM [1, 12]: 86.6%

Cc1ccc(NC(=O)c2cccc(C(C)(C)C#N)c2)cc1Nc1ccc2ncn(C)c(=O)c2c1 [AZ628]
pIC50 (wild-type CRAF): 7.54
pIC50 (BRAFV600E): 7.47
inhibition of growth at 5 µM [1, 12]: 0.6%

COc1cc(F)c(C(C)C)cc1-c1ccc(C(F)(F)F)cc1CN1C(=O)O[C@H](c2cc(C(F)(F)F)cc(C(F)(F)F)c2)[C@H]1C [Anacetrapib (MK-0859)]
pIC50 (mutant CETP(C13S)): 7.93
inhibition of growth at 5 µM [1, 12]: 22.1%

O=c1[nH]c2ccc(Cl)cc2c(N[C@@H]2CN3CCC2CC3)c1-c1nc2ccccc2[nH]1 [CHIR-124]
pIC50 (Chk1): 9.52
inhibition of growth at 5 µM [1, 12]: 0%

Nc1nc(NCCNc2ncc(-n3ccnc3)c(-c3ccc(Cl)cc3Cl)n2)ccc1[N+](=O)[O-] [CHIR-98014]
pIC50 (GSK-3β): 9.24
pIC50 (GSK-3ɑ): 9.19
inhibition of growth at 5 µM [1, 13]: 52.4%

CN(C)C(=O)[C@H](O)[C@H](Cc1ccccc1)NC(=O)c1cc2cc(Cl)ccc2[nH]1 [CP-91149]
pIC50 [2]: 6.89
inhibition of growth at 5 µM [1, 12]: 28.6%

Cc1cnc(CNC(=O)c2c(=O)c3ccc(N4CCCN(C)CC4)nc3n3c2sc2ccccc23)cn1 [CX-5461]
pIC50 [3]: 6.85
inhibition of growth at 5 µM [1, 12]: 2.5%

CC1(COc2ccc3c(c2)ncn3-c2ccc3cccc(N4CCC(N)CC4)c3n2)COC1 [Crenolanib (CP-868596)]
inhibition of growth at 5 µM [1, 12]: 0.2%

COc1cc2ncnc(Nc3ccc(F)c(Cl)c3)c2cc1NC(=O)/C=C/CN1CCCCC1 [Dacomitinib (PF299804,PF-00299804)]
inhibition of growth at 5 µM [1, 12]: 0.4%

CNC(=O)c1c(F)cccc1Nc1nc(Nc2cc3c(cc2OC)CCN3C(=O)CN(C)C)nc2[nH]ccc12 [GSK1838705A]
viability at 72 h (in vitro): 72.8%
pIC50 (ALK): 9.30
pIC50 (IGF-1R): 8.70
inhibition of growth at 5 µM [1, 12]: 70.9%

CCc1ccc(OCc2ccccc2C(=O)Nc2ccc3nc(C)cc(N)c3c2)cc1 [JTC-801]
viability at 72 h (in vitro): 16.4%
pIC50 [4]: 7.03
inhibition of growth at 5 µM [1, 12]: 98.8%

O=C(Cc1ccc(-c2ccc(OCCN3CCOCC3)cc2)cn1)NCc1ccccc1 [KX2-391]
GI50 (cancer cell lines): 9 to 60 nM
inhibition of growth at 5 µM [1, 12]: 7.6%

C[C@H](NC(=O)[C@@H](O)c1cc(F)cc(F)c1)C(=O)N[C@@H]1C(=O)N(C)c2ccccc2-c2ccccc21 [LY411575]
pIC50 (γ-secretase [5]): 10.11
pIC50 (γ-secretase [6]): 10.09
inhibition of growth at 5 µM [1, 12]: 0.9%

c1ccc(-c2nn3c(c2-c2ccnc4cc(OCCN5CCOCC5)ccc24)CCC3)nc1 [LY2109761]
pKi [7]: 6.52
inhibition of growth at 5 µM [1, 13]: 46.7%

CNC(=O)c1nn(C)c2c1C(C)(C)Cc1cnc(Nc3ccc(N4CCN(C)CC4)cc3)nc1-2 [Milciclib (PHA-848125)]
pIC50 (cyclin A/CDK2): 7.35
inhibition of growth at 5 µM [1, 12]: 16.4%

COc1ccc(-c2ccc3ncc4c(c3c2)n(-c2ccc(N3CCNCC3)c(C(F)(F)F)c2)c(=O)n4C)cn1 [NVP-BGT226]
pIC50 (PI3K/mTOR): 9.00
inhibition of growth at 5 µM [1, 12]: 6.1%

CC(=O)NCC(=O)N1[C@H]2CC[C@H]1c1cc(Nc3ncc(C(F)(F)F)c(NC4CCC4)n3)ccc12 [PF-03814735]
viability at 72 h (in vitro): 60.3%
pIC50 (Aurora A): 9.10
pIC50 (Aurora B): 8.30
inhibition of growth at 5 µM [1, 12]: 80.4%

COc1ccc(-c2cc3c(C)nc(N)nc3n([C@H]3CC[C@H](OCCO)CC3)c2=O)cn1 [PF-04691502]
pIC50 [8]: 8.42
pIC50 [9]: 8.12
inhibition of growth at 5 µM [1, 12]: 11.5%

CNC(=O)c1ccc(C)c(-n2c(C)cc(OCc3ccc(F)cc3F)c(Br)c2=O)c1 [PH-797804]
pIC50 (p38α): 7.59
inhibition of growth at 5 µM [1, 12]: 1.5%

O=C1NCCc2[nH]c(-c3ccncc3)cc21 [PHA-767491]
inhibition of growth at 5 µM [1, 13]: 2.1%

CCn1nnc2c(N3CCOCC3)nc(-c3ccc(NC(=O)Nc4ccc(C(=O)N5CCN(C)CC5)cc4)cc3)nc21 [PKI-402]
pIC50 (PI3Kα): 8.70
pIC50 (mTOR): 8.52
inhibition of growth at 5 µM [1, 12]: 36.9%

Cc1cnc(Nc2ccc(N3CCN(C)CC3)cc2)nc1Nc1cccc(S(=O)(=O)NC(C)(C)C)c1 [TG101209]
pIC50 (Flt3): 7.60
pIC50 (Ret): 7.77
pIC50 (JAK2): 8.22
inhibition of growth at 5 µM [1, 12]: -21.3%

CC(C)OC(=O)C1=CN(C(=O)c2ccc(F)c(F)c2)CC(C)(C)c2c1[nH]c1ccccc21 [WAY-362450]
pEC50 [10]: 8.40
inhibition of growth at 5 µM [1, 12]: -2.1%

C[C@H](NC(=O)Cc1cc(F)cc(F)c1)C(=O)N[C@@H]1C(=O)N(C)c2ccccc2-c2ccccc21 [YO-01027]
pIC50 (APPL (γ-secretase)): 8.59
pIC50 (Notch (γ-secretase)): 8.54
inhibition of growth at 5 µM [1, 12]: 1.4%

AZ 3146
Parasite inhibition (%) mean [11]: 3.4%
pIC50 (Mps1): ~7.46
